Measurements reported in publication PMC4412257, “2′,6′-Dimethylphenylalanine: A Useful Aromatic Amino Acid Surrogate for Tyr or Phe Residue in Opioid Peptides” (International Journal of Medicinal Chemistry, 2012).
Like-named read-outs stand apart in the source and are kept apart here.

Experiments:
[1] = test system: GPI (μ): guinea pig ileum, predominantly μ-receptors; assay: isolated guinea pig ileum (GPI) assay; format: cell-based; details: ratio of IC50 values
Protocol: (§1) The receptor-binding affinities of synthetic analogs were determined using rat brain, as previously reported. […] The GPI tissue contains predominantly μ-receptors, while MVD tissue contains δ-receptors. […] In contrast, 11 was devoid of activity in both assays, as expected from the binding data. […] This analog turned out to be a potent μ-antagonist and a weak δ-antagonist. […] The results of 13 are in line with observations that Dmt-D-Phe-NH2 and its C-terminally extended analog are μ-receptor antagonists.

[2] = test system: GPI (μ): guinea pig ileum, predominantly μ-receptors; details: cited from earlier work; for MVD/GPI: ratio of IC50 values; for Ke of CTAP against the peptide, GPI: antagonist CTAP (μ), GPI assay
μ-opioid receptor [3] = details: cited from earlier work; for Ki: versus [3H]DAMGO, read-out: Receptor binding affinity, Ki ± S.E., μ
δ-opioid receptor [4] = details: versus [3H]DT, read-out: Receptor binding affinity, Ki ± S.E., δ, cited from earlier work
μ-opioid receptor [5] = assay: μ-opioid receptor binding, brain homogenate, versus [3H]DAMGO; design: species or system rat; details: ratio of Ki values
Protocol: as §1
Two methyl groups on Dmp^4 may interfere with the receptor interaction due to a reduction in conformational flexibility and/or enhanced lipophilicity. To further examine the usefulness of Dmp-containing DYN peptides as κ-opioid receptor ligands, the in vitro bioactivity of DYN peptides was determined using the GPI assay (Table 5).

[6] = biological target: MVD (δ): mouse vas deferens, δ-receptors; details: cited from earlier work; for Ke of CTAP against the peptide, MVD: antagonist CTAP (μ); for Ke of CTAP against the peptide, MVD / Ke of N,N(Me)2Dmt-Tic-OH against the peptide, MVD: MVD assay; for Ke of N,N(Me)2Dmt-Tic-OH against the peptide, MVD: antagonist N,N(Me)2Dmt-Tic-OH (δ)
[7] = test system: MVD (δ): mouse vas deferens, δ-receptors; assay: isolated mouse vas deferens (MVD) assay; format: cell-based; details: ratio of IC50 values
Protocol: as §1

δ-opioid receptor [8] = assay: δ-opioid receptor binding, brain homogenate, versus [3H]DT; design: species or system rat; details: ratio of Ki values
Protocol: The receptor-binding affinities of synthetic analogs were determined using rat brain, as previously reported [45].

| Substance | MVD/GPI ([1]; Table 1) | IC50 ([2]; Table 1) [nM] | Ki (μ-opioid receptor [3]; Table 1, rat brain) [nM] | Ki (δ-opioid receptor [4]; Table 1, rat brain) [nM] | δ/μ (μ-opioid receptor [5]; Table 1) | IC50 ([6]; Table 1) [nM] | IC50 ([2]; Table 6) [nM] | Ki (μ-opioid receptor [3]; Table 6) [nM] | Ki (δ-opioid receptor [4]; Table 6) [nM] | also measured |
| --- | --- | --- | --- | --- | --- | --- | --- | --- | --- | --- |
| [Dmp^3]EM2 [compound 14] | 3.68 | 0.378 ± 0.104 | 0.0304 ± 0.0208 | 1060 ± 336 | 34967 |  |  |  |  |  |
| [D-Dmp^3]DM [compound 19] | 8.1 | 44.4 ± 6.1 | 4.43 ± 1.85 | 3300 ± 702 | 745 | 358 ± 45 |  |  |  |  |
| [Dmt^1]YRFB [reference compound] |  |  |  |  |  |  |  |  |  | IC50 ([6]; Table 6, footnote c): 0.398 ± 0.085 nM; Ke of CTAP against the peptide, MVD [6]: 7.89 nM; Ke of N,N(Me)2Dmt-Tic-OH against the peptide, MVD [6]: 192 nM; IC50 ([2]; Table 6, footnote c): 0.034 ± 0.065 nM; MVD/GPI ([2]; Table 6, footnote c): 11.7; Ke of CTAP against the peptide, GPI [2]: 85.5 nM; δ/μ (μ-opioid receptor [3]; Table 6, footnote c, ratio of Ki values): 551; Ki (μ-opioid receptor [3]; Table 6, footnote c): 0.00205 ± 0.00069 nM; Ki (δ-opioid receptor [4]; Table 6, footnote c): 1.13 ± 0.13 nM |
| [Dmp^4]ENK [compound 10] |  | 808 ± 101 | 1.25 ± 0.29 | 17.7 ± 4.2 |  | 624 ± 103 |  |  |  | GPI/MVD ([7]; Table 1): 1.29; μ/δ (δ-opioid receptor [8]; Table 1): 0.07 |
| [Dmp^3]DT [compound 20] |  | 6700 ± 992 | 1100 ± 111 | 0.00105 ± 0.00043 |  | 0.022 ± 0.003 |  |  |  |  |
| [D-Dmp^3]DT [compound 21] |  | 8210 ± 872 | 1960 ± 177 | 111 ± 17 |  | 145 ± 15 |  |  |  | GPI/MVD ([7]; Table 1): 56; μ/δ (δ-opioid receptor [8]; Table 1): 18 |
| [Dmp^1]ENK [compound 32] |  |  |  |  |  |  | 710 ± 69 | 5.94 ± 1.45 | 1.86 ± 0.61 | IC50 ([6]; Table 6): 66.6 ± 12.7 nM; GPI/MVD ([7]; Table 6): 10.66; μ/δ (δ-opioid receptor [8]; Table 6): 3.19 |
| [Dmp^3]DM [compound 18] | 3.8 | 1.21 ± 0.23 |  | 45.7 ± 11.8 | 84630 | 4.62 ± 0.82 |  |  |  |  |
| [Dmt^1]DT [compound 36] |  |  |  |  |  |  | 88.4 ± 22.7 | 0.261 ± 0.06 | 0.012 ± 0.002 | IC50 ([6]; Table 6): 0.052 ± 0.007 nM; GPI/MVD ([7]; Table 6): 1700; μ/δ (δ-opioid receptor [8]; Table 6): 21.8 |
| [Phe^1]ENK [compound 33] |  |  |  |  |  |  | > 10000 | 169 ± 12 | 73.7 ± 19.5 | IC50 ([6]; Table 6): > 10000 nM; μ/δ (δ-opioid receptor [8]; Table 6): 2.29 |
| [D-Dmp^4]EM2 [compound 17] | 3.86 | 587 ± 119 | 106 ± 20 | 1760 ± 834 | 17 | 2270 ± 603 |  |  |  |  |
| [Dmt^1]EM2 [reference compound] |  |  |  |  |  |  |  |  |  | IC50 ([6]; Table 6, footnote d): 1.87 ± 0.61 nM; IC50 ([2]; Table 6, footnote d): 0.07 ± 0.02 nM; MVD/GPI ([2]; Table 6, footnote d): 26.7; Ki (μ-opioid receptor [3]; Table 6, footnote d): 0.15 ± 0.04 nM |
| [Dmp^1]DT [compound 34] |  |  |  |  |  |  | 4040 ± 1120 | 156 ± 33 | 0.329 ± 0.077 | IC50 ([6]; Table 6): 0.272 ± 0.054 nM; μ/δ (δ-opioid receptor [8]; Table 6): 475 |
| [D-Dmp^3]EM2 [compound 15] | 6.15 | 30.4 ± 2.8 | 2.4 ± 0.56 | 4170 ± 954 | 1737 | 187 ± 30 |  |  |  |  |
| [D-Dmp^3]YRFB [compound 23] | 15.4 | 19.8 ± 1.9 | 0.0618 ± 0.0109 | > 2820 | >45679 | 305 ± 53 |  |  |  |  |
| [Dmp^1,3]YRFB [compound 25] |  |  |  |  |  |  | 2.76 ± 0.56 | 0.0216 ± 0.0062 | 1690 ± 458 | Ke of CTAP against the peptide, MVD [6]: 10.2 nM; Ke of N,N(Me)2Dmt-Tic-OH against the peptide, MVD [6]: >1000 nM; MVD/GPI ([1]; Table 6): 18.2; Ke of CTAP against the peptide, GPI [2]: 21.3 nM; δ/μ (μ-opioid receptor [5]; Table 6): 78148 |
| [Phe^1]EM2 [compound 40] |  |  |  |  |  |  | 1070 ± 309 | 54.1 ± 23.4 | 18900 | IC50 ([6]; Table 6): 5200 nM; MVD/GPI ([1]; Table 6): 4.85; δ/μ (μ-opioid receptor [5]; Table 6): 348 |
